# Measured values as given in BindingDB's records for doi:10.1021/jm00126a018 (Amherst College, 1989).
# pKi: −log10 of the molar value.
# Target: Chymotrypsinogen A (Bos taurus) (UniProt P00766)
# Assay: Inhibition of chymotrypsin-catalyzed hydrolysis of BzTyr p-nitroanilide by compound at pH 5
smiles,measurement,value
CC(=O)N[C@@H](C)C(=O)NN=CCNC(=O)c1ccccc1,pKi,< 2.10
